# In US11174268B2, “Benzenesulfonamide compouds and their use as therapeutic agents” (Xenon Pharmaceuticals Inc., priority 2016, dated 2021):
# Like-named read-outs stand apart in the source and are kept apart here.
# What was measured:
# [1] = biological target: NaV1.5 (Homo sapiens (Human), UniProt Q14524); test: Sodium Influx Assay (Flux), NaV1.5
# [2] = biological target: NaV1.1 (Homo sapiens (Human), UniProt P35498); test: Sodium Influx Assay (Flux), NaV1.1; assay type: cell-based; settings: Trex HEK293 cells, ANG2 dye, inactivated state;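 also: channels co-expressed with human β1 subunit and held open by modulators, cells exposed to compounds for one hour at room temperature, IC50 from percent inhibition of influx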
# [3] = biological target: NaV1.6 (Homo sapiens (Human), UniProt Q9UQD0); test: Sodium Influx Assay (Flux), NaV1.6; assay type: cell-based; settings: Trex HEK293 cells, ANG2 dye, inactivated state;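 also: Tetracycline-induced cells, compounds applied for one hour at room temperature with modulators holding channels open, IC50 from percent inhibition of sodium influx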
# [4] = read-out: Flux NaV1.5 IC50, Trex HEK293 cells, ANG2 dye, inactivated state
# Sequence of NaV1.5 (Q14524 other isoform, or with tags, fused parts or gaps): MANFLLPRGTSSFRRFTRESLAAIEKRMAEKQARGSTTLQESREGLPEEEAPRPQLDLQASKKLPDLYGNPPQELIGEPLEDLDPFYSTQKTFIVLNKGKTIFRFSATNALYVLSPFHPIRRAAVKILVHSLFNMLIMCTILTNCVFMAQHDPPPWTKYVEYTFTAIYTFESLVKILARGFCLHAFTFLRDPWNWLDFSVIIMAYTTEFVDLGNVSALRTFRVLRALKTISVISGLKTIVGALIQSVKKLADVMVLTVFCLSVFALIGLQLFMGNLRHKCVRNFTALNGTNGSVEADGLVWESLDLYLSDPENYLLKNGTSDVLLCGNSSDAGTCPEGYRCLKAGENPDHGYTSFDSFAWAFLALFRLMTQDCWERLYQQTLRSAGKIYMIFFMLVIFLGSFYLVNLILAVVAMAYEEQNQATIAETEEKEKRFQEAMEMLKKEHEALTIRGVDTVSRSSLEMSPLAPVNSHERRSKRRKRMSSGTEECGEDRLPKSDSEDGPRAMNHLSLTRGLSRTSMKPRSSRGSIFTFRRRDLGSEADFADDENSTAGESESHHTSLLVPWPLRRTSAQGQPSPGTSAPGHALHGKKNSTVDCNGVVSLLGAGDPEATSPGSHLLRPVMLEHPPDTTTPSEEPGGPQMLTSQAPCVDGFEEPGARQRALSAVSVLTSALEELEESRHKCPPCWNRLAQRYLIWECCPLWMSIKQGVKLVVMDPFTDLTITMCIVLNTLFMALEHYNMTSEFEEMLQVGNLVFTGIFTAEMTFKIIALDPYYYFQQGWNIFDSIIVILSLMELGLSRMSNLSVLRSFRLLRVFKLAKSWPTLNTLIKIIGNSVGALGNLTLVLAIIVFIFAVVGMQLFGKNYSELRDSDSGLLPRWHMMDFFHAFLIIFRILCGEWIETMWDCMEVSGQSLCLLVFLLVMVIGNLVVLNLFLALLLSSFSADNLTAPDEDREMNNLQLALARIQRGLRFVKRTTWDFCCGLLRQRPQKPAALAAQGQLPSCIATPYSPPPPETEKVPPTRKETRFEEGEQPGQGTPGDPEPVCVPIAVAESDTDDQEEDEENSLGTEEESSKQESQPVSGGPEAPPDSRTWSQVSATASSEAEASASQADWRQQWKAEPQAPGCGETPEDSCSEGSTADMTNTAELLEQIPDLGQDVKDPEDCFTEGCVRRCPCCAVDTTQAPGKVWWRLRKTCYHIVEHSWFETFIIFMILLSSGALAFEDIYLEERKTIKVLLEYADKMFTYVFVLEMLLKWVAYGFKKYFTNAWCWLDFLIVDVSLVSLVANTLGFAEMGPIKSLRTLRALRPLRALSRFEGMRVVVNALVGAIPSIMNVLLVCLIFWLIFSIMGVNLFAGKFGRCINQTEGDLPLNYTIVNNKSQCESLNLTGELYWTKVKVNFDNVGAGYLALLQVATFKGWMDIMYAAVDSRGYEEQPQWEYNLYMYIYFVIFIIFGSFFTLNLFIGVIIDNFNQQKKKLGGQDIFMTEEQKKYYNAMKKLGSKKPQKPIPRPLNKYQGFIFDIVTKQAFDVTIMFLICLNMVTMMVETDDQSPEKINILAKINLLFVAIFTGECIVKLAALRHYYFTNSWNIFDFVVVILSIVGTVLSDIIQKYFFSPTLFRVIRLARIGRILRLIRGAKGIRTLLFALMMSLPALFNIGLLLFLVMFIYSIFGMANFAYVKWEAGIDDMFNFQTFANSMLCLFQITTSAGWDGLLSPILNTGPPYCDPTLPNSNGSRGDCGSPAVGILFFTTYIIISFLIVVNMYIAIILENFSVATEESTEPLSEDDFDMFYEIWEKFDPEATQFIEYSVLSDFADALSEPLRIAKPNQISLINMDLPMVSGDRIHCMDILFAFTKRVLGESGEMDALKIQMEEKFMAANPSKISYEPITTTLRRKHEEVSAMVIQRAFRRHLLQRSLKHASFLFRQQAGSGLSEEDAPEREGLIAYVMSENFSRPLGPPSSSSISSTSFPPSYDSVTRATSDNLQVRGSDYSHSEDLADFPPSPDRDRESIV
IC50 [2] [µM],IC50 [3] [µM],SMILES,"IC50 [1, 4] [µM]",IC50 [1] [µM]
30,3.12,"Cc1cc(NS(=O)(=O)c2c(F)cc(NCc3c(F)ccc(F)c3CN3CCC3)cc2F)no1 [Example 216, 4-((2-(azetidin-1-ylmethyl)-3,6-difluorobenzyl)amino)-2,6-difluoro-N-(5-methylisoxazol-3-yl)benzenesulfonamide 2,2,2-trifluoroacetate]",30,–
15.3,0.701,"CN(C)Cc1ccccc1C1(Nc2cc(F)c(S(=O)(=O)Nc3cscn3)cc2Cl)CC1 [Example 217, 5-chloro-4-((1-(2-((dimethylamino)methyl)phenyl)cyclopropyl)-amino)-2-fluoro-N-(thiazol-4-yl)benzenesulfonamide 2,2,2-trifluoroacetate]",11.6,–
28.4,3.21,"COCc1cccc(F)c1CNc1cc(F)c(S(=O)(=O)Nc2cscn2)cc1Cl [Example 218, 5-chloro-2-fluoro-4-((2-fluoro-6-(methoxymethyl)benzyl)amino)-N-(thiazol-4-yl)benzenesulfonamide]",20.9,–
30,0.28,"Cc1cc(S(=O)(=O)Nc2ccon2)c(F)cc1NCc1c(F)cccc1CN1CCC1 [Example 219, 4-((2-(azetidin-1-ylmethyl)-6-fluorobenzyl)amino)-2-fluoro-N-(isoxazol-3-yl)-5-methylbenzenesulfonamide]",30,–
2.12,0.193,"O=S(=O)(Nc1nccs1)c1cc(Cl)c(NC2(c3ccccc3F)CC2)cc1F [Example 220, 5-chloro-2-fluoro-4-((1-(2-fluorophenyl)cyclopropyl)amino)-N-(thiazol-2-yl)benzenesulfonamide]",3.17,–
25.4,4.66,"O=S(=O)(Nc1cscn1)c1cc(Cl)c(OC2(c3ccccc3)CC2)cc1F [Example 221, 5-chloro-2-fluoro-4-(1-phenylcyclopropoxy)-N-(thiazol-4-yl)benzenesulfonamide]",19,–
3.99,1.93,"CC[C@H](Nc1cc(F)c(S(=O)(=O)Nc2cscn2)cc1Cl)c1ccccc1Cl [Example 222, (S)-5-chloro-4-((1-(2-chlorophenyl)propyl)amino)-2-fluoro-N-(thiazol-4-yl)benzenesulfonamide]",8.35,–
3.74,4.23,"C[C@H](Nc1cc(F)c(S(=O)(=O)Nc2cscn2)cc1Cl)c1cc(F)cc(F)c1 [Example 223, (S)-5-chloro-4-((1-(3,5-difluorophenyl)ethyl)amino)-2-fluoro-N-(thiazol-4-yl)benzenesulfonamide]",–,12.2
7.76,5.07,"O=S(=O)(Nc1cscn1)c1cc(Cl)c(NC2(c3ccc(F)cc3F)CC2)cc1F [Example 224, 5-chloro-4-((1-(2,4-difluorophenyl)cyclopropyl)amino)-2-fluoro-N-(thiazol-4-yl)benzenesulfonamide]",30,–
19.9,8.19,"Cc1cccc(Cl)c1CNc1cc(F)c(S(=O)(=O)Nc2cscn2)cc1Cl [Example 226, 5-chloro-4-((2-chloro-6-methylbenzyl)amino)-2-fluoro-N-(thiazol-4-yl)benzenesulfonamide]",11.3,–
8.78,1.25,"C[C@H](Nc1cc(F)c(S(=O)(=O)Nc2cscn2)cc1Cl)c1cc(CC(F)F)ccc1F [Example 227, (S)-5-chloro-4-((1-(5-(2,2-difluoroethyl)-2-fluorophenyl)ethyl)amino)-2-fluoro-N-(thiazol-4-yl)benzenesulfonamide]",8.6,–
13.2,1.94,"COCc1ccc(F)c([C@H](C)Nc2cc(F)c(S(=O)(=O)Nc3cscn3)c(F)c2)c1 [Example 228, (S)-2,6-difluoro-4-((1-(2-fluoro-5-(methoxymethyl)phenyl)ethyl)amino)-N-(thiazol-4-yl)benzenesulfonamide]",27.5,–
30,0.961,"C[C@H](Nc1cc(F)c(S(=O)(=O)Nc2cscn2)cc1Cl)c1cc(C#N)ccc1F [Example 229, (S)-5-chloro-4-((1-(5-cyano-2-fluorophenyl)ethyl)amino)-2-fluoro-N-(thiazol-4-yl)benzenesulfonamide]",30,–
17.5,4.21,"O=S(=O)(Nc1cscn1)c1c(F)cc(NC2(c3ccccc3)CC2)cc1F [Example 231, 2,6-difluoro-4-[(1-phenylcyclopropyl)amino]-N-thiazol-4-yl-benzenesulfonamide]",30,–
21.2,1.75,"C[C@H](Oc1cc(F)c(S(=O)(=O)Nc2cscn2)c(F)c1)c1ccccc1F [Example 232, (S)-2,6-difluoro-4-(1-(2-fluorophenyl)ethoxy)-N-(thiazol-4-yl)benzenesulfonamide]",11.2,–
3.08,0.787,"C[C@H](Nc1cc(F)c(S(=O)(=O)Nc2cscn2)c(F)c1)c1cc(C(F)F)ccc1F [Example 233, (S)-4-((1-(5-(difluoromethyl)-2-fluorophenyl)ethyl)amino)-2,6-difluoro-N-(thiazol-4-yl)benzenesulfonamide]",12.4,–
4.62,0.669,"C[C@H](Nc1cc(F)c(S(=O)(=O)Nc2cscn2)cc1Cl)c1cc(O)ccc1F [Example 234, (S)-5-chloro-2-fluoro-4-((1-(2-fluoro-5-hydroxyphenyl)ethyl)amino)-N-(thiazol-4-yl)benzenesulfonamide]",8.67,–
22.4,3.02,"C[C@H](Nc1cc(F)c(S(=O)(=O)Nc2cscn2)cc1Cl)c1cc(OC2COC2)ccc1F [Example 235, (S)-5-chloro-2-fluoro-4-((1-(2-fluoro-5-(oxetan-3-yloxy)phenyl)ethyl)amino)-N-(thiazol-4-yl)benzenesulfonamide]",30,–
30,3.02,"C[C@H](Nc1cc(F)c(S(=O)(=O)Nc2cscn2)cc1Cl)c1cc(OCC2COC2)ccc1F [Example 236, (S)-5-chloro-2-fluoro-4-((1-(2-fluoro-5-(oxetan-3-ylmethoxy)phenyl)ethyl)amino)-N-(thiazol-4-yl)benzenesulfonamide]",30,–
12.5,3.54,"C[C@H](Nc1cc(F)c(S(=O)(=O)Nc2cscn2)cc1Cl)c1cc(OCC2(C)COC2)ccc1F [Example 237, (S)-5-chloro-2-fluoro-4-((1-(2-fluoro-5-((3-methyloxetan-3-yl)methoxy)phenyl)ethyl)amino)-N-(thiazol-4-yl)benzenesulfonamide]",30,–
27,1.65,"C[C@H](Nc1ccc(S(=O)(=O)Nc2cscn2)cc1C#N)c1ccccc1F [Example 239, (S)-3-cyano-4-((1-(2-fluorophenyl)ethyl)amino)-N-(thiazol-4-yl)benzenesulfonamide]",28.9,–
30,3.17,"C[C@H](Nc1cc(F)c(S(=O)(=O)Nc2ccon2)c(F)c1)c1cc(F)ccc1F [Example 240, (S)-4-((1-(2,5-difluorophenyl)ethyl)amino)-2,6-difluoro-N-(isoxazol-3-yl)benzenesulfonamide]",30,–
